Measured values taken from US12077503B2, “Substituted cyclic amides and their use as herbicides” (FMC CORPORATION, priority 2015, dated 2024).
Read-outs that look alike come from different tables or passages of the source.

Legend:
[1] = test system: barnyardgrass (Echinochloa crus-galli); test: Test B flooded paddy test; type: in vivo; conditions: Flood, 250 g ai/ha; for pest or weed control at 250 g/ha: Echinochloa crus-galli, read-out: Barnyardgrass plant response rating
Method in brief: (§1)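 Greenhouse paddy pots with 2-leaf stage plants received compound by direct addition to floodwater 3 cm deep, kept at that level. Scored visually at 13–15 d versus controls (0 no effect; 100 complete control).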

rice (Oryra sativa) = test: Test B flooded paddy test; type: in vivo; conditions: Flood, 250 g ai/ha; for pest or weed control at 250 g/ha: Oryza sativa, read-out: Rice plant response rating
Method in brief: as §1

[2] = test system: ducksalad (Heteranthera limosa); test: Test B flooded paddy test; type: in vivo; conditions: Flood, 250 g ai/ha; for pest or weed control at 250 g/ha: Heteranthera limosa, read-out: Ducksalad plant response rating
Method in brief: as §1

[3] = test system: sedge, umbrella (small-flower umbrella sedge, Cyperus difformis); test: Test B flooded paddy test; type: in vivo; conditions: Flood, 250 g ai/ha; for pest or weed control at 250 g/ha: Cyperus difformis, read-out: Sedge, Umbrella plant response rating
Method in brief: as §1

[4] = test system: dayflower, VA (Virginia dayflower, Commelina virginica); test: Test E preemergence; type: in vivo; conditions: scale 0 to 100
Source text: (§2) Seeds of plant species selected from corn (Zea mays), soybean (Glycine max), velvetleaf (Abutilon theophrasti), lambsquarters (Chenopodium album), poinsettia, wild (wild poinsettia, Euphorbia heterophylla), pigweed, palmer (palmer pigweed, Amaranthus palmeri), waterhemp (common waterhemp, Amaranthus rudis), surinam grass (Brachiaria decumbens), crabgrass, large (large crabgrass, Digitaria sangumnalis), crabgrass, Brazil (Brazilian crabgrass, Digitaria horizontalis), Panicum, fall (fall Panicum, Panicum dichotomiflorum), foxtail, giant (giant foxtail, Setaria faberii), foxtail, green (green foxtail, Setaria viridis), goosegrass (Eleusine indica), johnsongrass (Sorghum halepense), ragweed (common ragweed, Ambrosia elatior), barnyardgrass (Echinochloa crus-galli), sandbur (southern sandbur, Cenchrus echinatus), arrowleaf Sida (Sida rhombifolia), ryegrass, Italian (Italian ryegrass, Lolium multiflorum), dayflower, VA (Virginia dayflower, Commelina virginica), field bindweed (Convolvulus arvensis), morningglory (Ipomoea coccinea), nightshade (eastern black nightshade, Solanum ptycanthum), Kochia (Kochia scoparia), nutsedge, yellow (yellow nutsedge, Cyperus esculentus), horseweed (Conyza canadensis), and beggarticks (hairy beggarticks, Bidens pilosa), were planted into a silt loam soil and treated preemergence with test chemicals formulated in a non-phytotoxic solvent mixture which included a surfactant.
(§3) At the same time, plants selected from these crop and weed species were planted in pots containing Sunshine Redi-Earth planting medium comprising spaghnum peat moss, vermiculite, starter nutrients and dolomitic limestone and treated with postemergence applications of a test chemical formulated in the same manner. Plants ranged in height from 2 to 18 cm (1- to 4-leaf stage) for postemergence treatments. Treated plants and controls were maintained in a greenhouse for 14 to 21 d, after which time all species were compared to controls and visually evaluated. Plant response ratings, summarized in Table E, are based on a scale of 0 to 100 where 0 is no effect and 100 is complete control. A dash (-) response means no test result.

[5] = test system: sandbur (southern sandbur, Cenchrus echinatus); test: Test E preemergence; type: in vivo; conditions: scale 0 to 100
Source text: as §2, §3

[6] = test system: field bindweed (Convolvulus arvensis); test: Test E preemergence; type: in vivo; conditions: scale 0 to 100
Source text: as §2, §3

corn (Zea mays) = test: Test E preemergence; type: in vivo; conditions: scale 0 to 100
Source text: as §2, §3

Kochia (Kochia scoparia) = test: Test E preemergence; type: in vivo; conditions: scale 0 to 100
Source text: as §2, §3

[7] = test system: ryegrass, Italian (Italian ryegrass, Lolium multiflorum); test: Test E preemergence; type: in vivo; conditions: scale 0 to 100
Source text: as §2, §3

[8] = test system: johnsongrass (Sorghum halepense); test: Test E preemergence; type: in vivo; conditions: scale 0 to 100
Source text: as §2, §3

[9] = test system: pigweed, palmer (palmer pigweed, Amaranthus palmeri); test: Test E preemergence; type: in vivo; conditions: scale 0 to 100
Source text: as §2, §3

soybean (Glycine max) = test: Test E preemergence; type: in vivo; conditions: scale 0 to 100
Source text: as §2, §3

[10] = test system: crabgrass, large (large crabgrass, Digitaria sangumnalis); test: Test E preemergence; type: in vivo; conditions: scale 0 to 100
Source text: as §2, §3

[11] = test system: crabgrass, Brazil (Brazilian crabgrass, Digitaria horizontalis); test: Test E preemergence; type: in vivo; conditions: scale 0 to 100
Source text: as §2, §3

[12] = test system: nutsedge, yellow (yellow nutsedge, Cyperus esculentus); test: Test E preemergence; type: in vivo; conditions: scale 0 to 100
Source text: as §2, §3

[13] = test system: lambsquarters (Chenopodium album); test: Test E preemergence; type: in vivo; conditions: scale 0 to 100
Source text: as §2, §3

[14] = 0 to 100 scale where 0 is no effect and 100 is complete control, 13 to 15 d
[15] = scale of 0 to 100 where 0 is no effect and 100 is complete control
[16] = 0 to 100 scale where 0 is no effect and 100 is complete control

For CN1C[C@H](c2ccc(F)c(F)c2)[C@@H](C(=O)Nc2ccccc2F)C1=O [Compound 596, (3S,4S)-4-(3,4-difluorophenyl)-N-(2-fluorophenyl)-1-methyl-2-oxo-3-pyrrolidinecarboxamide], the “Plant response rating, Barnyardgrass” value [1, 14] was 95, the “Plant response rating, Rice” value (rice (Oryra sativa); [14]) was 0 and the “Plant response rating, Ducksalad” value [2, 14] was 100. For the same compound, the “Plant response rating, Sedge, Umbrella” value [3, 14] was 0, the “Plant response rating: Dayflower, VA” value ([4]; 31 g ai/ha) was 0 and the “Plant response rating: Dayflower, VA” value ([4]; 62 g ai/ha) was 40. The “Plant response rating: Dayflower, VA” value ([4]; 125 g ai/ha) was 40, the “Plant response rating: Dayflower, VA” value ([4]; 250 g ai/ha) was 35 and the “Plant response rating: Sandbur” value ([5]; 31 g ai/ha) was 85. The “Plant response rating: Sandbur” value ([5]; 62 g ai/ha) was 90, the “Plant response rating: Sandbur” value ([5]; 125 g ai/ha) was 90 and the “Plant response rating: Sandbur” value ([5]; 250 g ai/ha) was 95. For the same compound, the “Plant response rating: Field Bindweed” value ([6]; 31 g ai/ha) was 0, the “Plant response rating: Field Bindweed” value ([6]; 62 g ai/ha) was 0 and the “Plant response rating: Field Bindweed” value ([6]; 125 g ai/ha) was 0. The “Plant response rating: Field Bindweed” value ([6]; 250 g ai/ha) was 15, the “Plant response rating: Corn” value (corn (Zea mays); 31 g ai/ha) was 0 and the “Plant response rating: Corn” value (corn (Zea mays); 62 g ai/ha) was 0. The “Plant response rating: Corn” value (corn (Zea mays); 125 g ai/ha) was 0, the “Plant response rating: Corn” value (corn (Zea mays); 250 g ai/ha) was 0 and the “Plant response rating: Kochia” value (Kochia (Kochia scoparia); 31 g ai/ha) was 0. For the same compound, the “Plant response rating: Kochia” value (Kochia (Kochia scoparia); 62 g ai/ha) was 25, the “Plant response rating: Kochia” value (Kochia (Kochia scoparia); 125 g ai/ha) was 80 and the “Plant response rating: Kochia” value (Kochia (Kochia scoparia); 250 g ai/ha) was 90. For the same compound, the “Plant response rating: Ryegrass, Italian” value ([7]; 31 g ai/ha) was 0, the “Plant response rating: Ryegrass, Italian” value ([7]; 62 g ai/ha) was 0 and the “Plant response rating: Ryegrass, Italian” value ([7]; 125 g ai/ha) was 35. For the same compound, the “Plant response rating: Ryegrass, Italian” value ([7]; 250 g ai/ha) was 50, the “Plant response rating: Johnsongrass” value ([8]; 31 g ai/ha) was 0 and the “Plant response rating: Johnsongrass” value ([8]; 62 g ai/ha) was 0. For the same compound, the “Plant response rating: Johnsongrass” value ([8]; 125 g ai/ha) was 0, the “Plant response rating: Johnsongrass” value ([8]; 250 g ai/ha) was 35 and the “Plant response rating: Pigweed, Palmer” value ([9]; 31 g ai/ha) was 0. The “Plant response rating: Pigweed, Palmer” value ([9]; 62 g ai/ha) was 0, the “Plant response rating: Pigweed, Palmer” value ([9]; 125 g ai/ha) was 0 and the “Plant response rating: Pigweed, Palmer” value ([9]; 250 g ai/ha) was 40. For the same compound, the “Plant response rating: Soybean” value (soybean (Glycine max); 31 g ai/ha) was 0, the “Plant response rating: Soybean” value (soybean (Glycine max); 62 g ai/ha) was 0 and the “Plant response rating: Soybean” value (soybean (Glycine max); 125 g ai/ha) was 0. For the same compound, the “Plant response rating: Soybean” value (soybean (Glycine max); 250 g ai/ha) was 0, the “Plant response rating: Crabgrass, Large” value ([10]; 31 g ai/ha) was 95 and the “Plant response rating: Crabgrass, Large” value ([10]; 62 g ai/ha) was 95. The “Plant response rating: Crabgrass, Large” value ([10]; 125 g ai/ha) was 98, the “Plant response rating: Crabgrass, Large” value ([10]; 250 g ai/ha) was 98 and the “Plant response rating: Crabgrass, Brazil” value ([11]; 31 g ai/ha) was 100. For the same compound, the “Plant response rating: Crabgrass, Brazil” value ([11]; 62 g ai/ha) was 95, the “Plant response rating: Crabgrass, Brazil” value ([11]; 125 g ai/ha) was 100 and the “Plant response rating: Crabgrass, Brazil” value ([11]; 250 g ai/ha) was 100. The “Plant response rating: Nutsedge, Yellow” value ([12]; 31 g ai/ha) was 0, the “Plant response rating: Nutsedge, Yellow” value ([12]; 62 g ai/ha) was 0 and the “Plant response rating: Nutsedge, Yellow” value ([12]; 125 g ai/ha) was 0. The “Plant response rating: Nutsedge, Yellow” value ([12]; 250 g ai/ha) was 0, the “Plant response rating: Lambsquarters” value ([13]; 31 g ai/ha) was 25 and the “Plant response rating: Lambsquarters” value ([13]; 62 g ai/ha) was 25. The “Plant response rating: Lambsquarters” value ([13]; 125 g ai/ha) was 80 and the “Plant response rating: Lambsquarters” value ([13]; 250 g ai/ha) was 90.
For CN1C[C@H](c2ccc(C(F)(F)F)cc2)[C@@H](C(=O)Nc2cccc(F)c2Br)C1=O [Compound 937], the pest or weed control at 250 g/ha [1, 15] was 0%, the pest or weed control at 250 g/ha (rice (Oryra sativa); [15]) was 0% and the pest or weed control at 250 g/ha [2, 15] was 45%. It also gave a pest or weed control at 250 g/ha [3, 15] of 0% and a melting point of 160 to 163 °C.
For CN1CC(c2ccccc2OC(F)(F)C(F)F)C(C(=O)Nc2ccccc2F)C1=O (stereo not drawn) [Compound 1053], the pest or weed control at 250 g/ha [1, 16] was 0%, the pest or weed control at 250 g/ha (rice (Oryra sativa); [16]) was 0% and the pest or weed control at 250 g/ha [2, 16] was 0%. For the same compound, the pest or weed control at 250 g/ha [3, 16] was 0% and the melting point was 118 to 121 °C.
Compound O=C1NCC(c2ccccc2OC(F)(F)C(F)F)C1C(=O)Nc1cccc(F)c1F (stereo not drawn) [Compound 1054] has a pest or weed control at 250 g/ha [1, 16] of 0%, a pest or weed control at 250 g/ha (rice (Oryra sativa); [16]) of 0% and a pest or weed control at 250 g/ha [2, 16] of 0%. The pest or weed control at 250 g/ha [3, 16] was 0% and the melting point was 192 to 196 °C.
In the case of CSc1ccccc1NC(=O)C1C(=O)NCC1C=C(C)C (stereo not drawn) [Compound 1055], the pest or weed control at 250 g/ha [1, 16] is reported as 0%, the pest or weed control at 250 g/ha (rice (Oryra sativa); [16]) is reported as 0% and the pest or weed control at 250 g/ha [2, 16] is reported as 30%. It also gave a pest or weed control at 250 g/ha [3, 16] of 0% and a melting point of 100 to 104 °C.
For CN1CC(c2ccccc2OC(F)(F)C(F)F)C(C(=O)Nc2cccc(F)c2F)C1=O (stereo not drawn) [Compound 1056], the pest or weed control at 250 g/ha [1, 16] was 0%, the pest or weed control at 250 g/ha (rice (Oryra sativa); [16]) was 20% and the pest or weed control at 250 g/ha [2, 16] was 0%. For the same compound, the pest or weed control at 250 g/ha [3, 16] was 0% and the melting point was 130 to 134 °C.
For CC(C)=CC1CNC(=O)C1C(=O)Nc1ccccc1S(C)(=O)=O (stereo not drawn) [Compound 1057], the pest or weed control at 250 g/ha [1, 16] was 30%, the pest or weed control at 250 g/ha (rice (Oryra sativa); [16]) was 0% and the pest or weed control at 250 g/ha [2, 16] was 85%. For the same compound, the pest or weed control at 250 g/ha [3, 16] was 0% and the melting point was 159 to 163 °C.
Compound O=C1NC[C@H](c2cccc(I)c2)[C@H]1C(=O)Nc1ccccc1F [Compound 1160] has a pest or weed control at 250 g/ha [1, 16] of 0%, a pest or weed control at 250 g/ha (rice (Oryra sativa); [16]) of 20% and a pest or weed control at 250 g/ha [2, 16] of 80%. The pest or weed control at 250 g/ha [3, 16] was 0% and the melting point was 161 to 164 °C.
O=C1NC[C@H](c2nccs2)[C@H]1C(=O)Nc1ccccc1F [Compound 1181] gave a pest or weed control at 250 g/ha [1, 16] of 0%, a pest or weed control at 250 g/ha (rice (Oryra sativa); [16]) of 0% and a pest or weed control at 250 g/ha [2, 16] of 35%. The pest or weed control at 250 g/ha [3, 16] was 0% and the melting point was 123 to 127.7 °C.
